Active and inactive are the calls of the source. The rule behind the calls is not given here.

We go through two compounds from ChEMBL document CHEMBL1255428, “Characterization of UDP-glucose dehydrogenase and UDP-glucose pyrophosphorylase mutants of Proteus mirabilis: defectiveness in polymyxin B resistance, swarming, and virulence” (2010).

Assay [1] has as its system Proteus mirabilis. Description: Antimicrobial activity against Proteus mirabilis dG1 knockout after 16 to 18 hrs by broth micro dilution assay. In kind it is functional.
Assay [2] deals with Proteus mirabilis. As to the kind of experiment: Antimicrobial activity against Proteus mirabilis dU2 knockout mutant after 16 to 18 hrs by broth micro dilution assay. It counts as functional.
For assay [3], the system named is Proteus mirabilis. As to the kind of experiment: Induction of Ugd expression in Proteus mirabilis dA10 rppA knockout mutant at 1 ug/ml by real-time RT-PCR analysis. In kind it is functional, organism-based. On the technique in general: In qPCR the cycle at which signal appears reflects the starting amount.
Assay [4] has as its system Proteus mirabilis. Description: Induction of Ugd expression in wild type Proteus mirabilis dA10c RppA-complemented strain at 1 ug/ml by real-time RT-PCR analysis. In kind it is functional, organism-based.
Assay [5] concerns Proteus mirabilis. As to the kind of experiment: Induction of Ugd expression in wild type Proteus mirabilis N2 at 1 ug/ml by real-time RT-PCR analysis. It counts as functional, organism-based.
Assay [6] concerns Proteus mirabilis. Description: Antimicrobial activity against Proteus mirabilis dG1 knockout mutant transformed with pACYC184-galU after 16 to 18 hrs by broth micro dilution assay. It counts as functional.
For assay [7], the system named is Proteus mirabilis. Description: Antimicrobial activity against wild type Proteus mirabilis N2 after 16 to 18 hrs by broth micro dilution assay. It counts as functional.
Assay [8] concerns Proteus mirabilis. As to the kind of experiment: Antimicrobial activity against Proteus mirabilis dU2 knockout mutant transformed with pACYC184-ugd after 16 to 18 hrs by broth micro dilution assay. In kind it is functional.

For the compound POLYMYXIN B, the MIC against Proteus mirabilis [1] amounted to 4 µg/mL; against Proteus mirabilis [2] it was 2 µg/mL. Further, the outcome in the assay on Proteus mirabilis [3] and with Proteus mirabilis [5] was Active. Also, in the assay with Proteus mirabilis [4], the outcome was inactive.

On to `CCCCCCCCCCCCOS(=O)(=O)[O-].[Na+]` [SODIUM LAURYL SULFATE], for which the MIC with Proteus mirabilis [6] came out at 2000 µg/mL; in the assay on Proteus mirabilis [1], 500 µg/mL; against Proteus mirabilis [7], 2000 µg/mL; against Proteus mirabilis [2], 500 µg/mL; against Proteus mirabilis [8], 2000 µg/mL.

The MIC is the least concentration at which growth counts as inhibited.
